Legend:
Conditions in all cases: 72 h
[1] = test system: HL-60; test: cell viability (% survival relative to DMSO control); higher = less cytotoxic
Outline: (§1)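 Area under the curve, where listed, was derived from four-parameter log-logistic fits with drc and PharmacoGx. These fits used CellTiter-Glo viability from HL-60 cells in RPMI 1640 with 10% FBS, normalised to DMSO wells and wells holding 10 μM proteasome inhibitor. The full library was rescreened on 384-well plates in duplicate at five tenfold concentrations, 1–10,000 nM, with DMSO or 100 nM of one of three metabolic inhibitors, for 72 h at 37 °C, 5% CO2.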

[2] = test system: THP-1; test: cell viability (% survival relative to DMSO control, bortezomib = 0%); higher = less cytotoxic
Outline: (§2)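 Reported values are percent survival from duplicate wells, averaged. Fifteen myeloid leukaemia cell lines were treated in 384-well plates with compounds at 1, 10, 100, 1000 or 10000 nM for 72 h at 37 °C in 5% CO2. Signals from CellTiter-Glo luminescence were scaled with vehicle as 100% and a 10 µM positive control as 0%.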

[3] = test system: NOMO-1; test: as above
Outline: as §2

[4] = test system: SHI-1; test: as above
Outline: as §2

[5] = test system: K-562; test: as above
Outline: as §2

[6] = test system: LAMA-84; test: as above
Outline: as §2

[7] = test system: BV-173; test: as above
Outline: as §2

[8] = test system: HEL; test: as above
Outline: as §2

[9] = test system: HL-60; test: as above
Outline: as §2

[10] = test system: ML-2; test: as above
Outline: as §2

[11] = test system: KCL-22; test: as above
Outline: as §2

[12] = test system: KG-1; test: as above
Outline: as §2

[13] = test system: MOLM-13; test: as above
Outline: as §2

[14] = test system: KU-812; test: as above
Outline: as §2

[15] = test system: MV4-11; test: as above
Outline: as §2

[16] = test system: Mono-Mac-6; test: as above
Outline: as §2

[17] = test system: HL-60; test: area under dose-response curve (viability, 1 nM-10 uM) (fraction (0-1)); higher = more sensitive
Outline: as §1

[18] = test system: MV4-11
Outline: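 In 384-well plates holding acoustically pre-printed compounds at five tenfold doses from 1 to 10,000 nM, in duplicate, fifteen myeloid leukaemia cell lines were grown in RPMI 1640 for 72 h at 37 °C with 5% CO2. Luminescent ATP viability was scaled between vehicle and a positive control at 10 µM. The IC50 was then taken from log-logistic dose–response fits with four parameters.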

Cc1cc(O)c2c(c1)C(=O)c1cc(O)cc(O)c1C2=O [Emodin]
cell viability [%], [1]
Conditions | 0.001 µM | 0.01 µM | 0.1 µM | 1 µM | 10 µM
co-treatment: AZD3965 100 nM | 101 | 97.9 | 101 | 97.585 | 98.7
co-treatment: DMSO vehicle | 102 | 100 | 101 | 102.6 | 103.5
co-treatment: GSK2194069 100 nM | 92.5 | 76.2 | 94 | 74.7 | 96.7
co-treatment: pictilisib 100 nM | 96.6 | 107 | 97.4 | 89.4 | 97.6

Conditions | area under dose-response curve, co-treatment: AZD3965 100 nM | area under dose-response curve, co-treatment: DMSO vehicle | area under dose-response curve, co-treatment: GSK2194069 100 nM | area under dose-response curve, co-treatment: pictilisib 100 nM | cell viability, 1 nM [%] | cell viability, 10 nM [%] | cell viability, 100 nM [%] | cell viability, 1000 nM [%] | cell viability, 10000 nM [%]
[2] | – | – | – | – | 90.6 | 97.3 | 106 | 90.5 | 105
[3] | – | – | – | – | 99.1 | 100 | 103 | 104 | 112
[4] | – | – | – | – | 88.6 | 97.8 | 98.3 | 94.5 | 93.5
[5] | – | – | – | – | 109 | 94.2 | 102 | 102 | 112
[6] | – | – | – | – | 102 | 100 | 102 | 96.5 | 112
[7] | – | – | – | – | 88.8 | 111 | 99.8 | 74.6 | 89.8
[8] | – | – | – | – | 105 | 114 | 98.5 | 89.8 | 115
[9] | – | – | – | – | 90.5 | 97.8 | 124 | 88.2 | 109
[10] | – | – | – | – | 97.8 | 104 | 101 | 89.5 | 98.2
[11] | – | – | – | – | 103 | 97.9 | 96.6 | 98.5 | 96
[12] | – | – | – | – | 90.7 | 89.7 | 96.1 | 97.3 | 94.9
[13] | – | – | – | – | 67 | 101 | 112 | 95.2 | 71.4
[14] | – | – | – | – | 95.1 | 100 | 104 | 89.8 | 80.8
[15] | – | – | – | – | 92.8 | 85.6 | 93 | 99 | 100
[16] | – | – | – | – | 92.1 | 106 | 97.3 | 102 | 81.7
[17] | < 0.0301 | < 0.0301 | < 0.0301 | < 0.0301 | – | – | – | – | –

Conditions | IC50 (cell viability) [µM]
[18] | > 10

From the supplement of paper PMC8671470
